Literature values in patent US20240041963A1, “A NUTRACEUTICALS FORMULATION WITH AN ENHANCED ORGANOLEPTIC PROPERTIES USED FOR SCALP AND HAIR CARE” (DiaBliss Consumer Products Pvt Ltd, priority 2020, published 2024).
Like-named read-outs stand apart in the source and are kept apart here.

Columns and labels:
[1] = tested on: men with hair loss; conditions: according to the American Academy of Dermatology
[2] = tested on: Male Patients with Androgenetic Alopecia; conditions: 30 men, 5 mg oral; for Hair Density in 1 sq cm area: Day 0 182.5
[3] = tested on: Male Patients with Androgenetic Alopecia; conditions: 30 men, 5 mg oral; for Hair Diameter: Day 0 58.5

| SMILES | men in whom it slows hair loss [1] | men in whom it stimulates regrowth [1] | Hair Density Increase vs Day 0 ([2]; Week 12 (Day 84)) | Hair Density in 1 sq cm area ([2]; Week 12 (Day 84)) | Hair Density Increase vs Day 0 ([2]; Week 24 (Day 168)) | Hair Density in 1 sq cm area ([2]; Week 24 (Day 168)) | Hair Diameter Increase vs Day 0 ([3]; Week 12 (Day 84)) | Hair Diameter ([3]; Week 12 (Day 84)) | Hair Diameter Increase vs Day 0 ([3]; Week 24 (Day 168)) | Hair Diameter ([3]; Week 24 (Day 168)) |
| --- | --- | --- | --- | --- | --- | --- | --- | --- | --- | --- |
| CC(C)(C)NC(=O)[C@H]1CC[C@H]2[C@@H]3CC[C@H]4NC(=O)C=C[C@]4(C)[C@H]3CC[C@]12C [Finasteride] | about 88% | about 66% | – | – | – | – | – | – | – | – |
| Nc1cc(N2CCCCC2)nc(N)[n+]1[O-] [Oral Minoxidil, 2,4-diamino-6-piperidinopyrimidine 3-oxide] | – | – | 14.2% | 208.5 | 19.2% | 217.6 | 10.6% | 64.7 µm | 15.2% | 67.4 µm |
